Where two headings read alike, the source gives them in different places.
Key:
Debaryomyces hansenii = experiment: Wood preservative efficacy against bacteria and yeasts, tryptose agar plates; type: cell-based; design: key: 0 = growth equal to control, 1 = inhibition, 2 = no growth
Description: Compositions were prepared by dissolving the compounds shown in Table 1 in 50% ethanol and further diluting with sterile distilled water. […] After cooling, the medium was inoculated with the bacteria listed below. After sufficient growth of the untreated cultures, the compounds were evaluated using the following rating system: 0=growth equal to control 1=inhibition of growth by the compound 2=no growth under the influence of the compound. In this Table, the higher numbers are the most preferred species. Debaryomyces hansenii (yeast)

Sclerophoma pithyophila = experiment: Control of molds and blue stain fungi in stick test (beech sticks); details: minimum concentration producing a score less than or equal to 1; dosages 50-1000 ppm
Description: (§1) The compounds shown in Table 1 were dissolved in 50% ethanol and a dilution series was made using the same solvent. In 25 ml of each dilution, one oven-dried beech stick (73×18×2 mm) was drenched until saturated.
(§2) Test dosages were 50, 100, 250, 500, and 1000 ppm for blue stain fungi which were Aureobasidium pullulans and Sclerophoma pithyophila. Test dosages for the molds used (Trichoderma viride, Aspergillus niger) were 250, 500, 1000, 2500, and 5000 ppm.
(§3) After three hours the test solution was poured off and each stick was allowed to dry in a sterile laminar air flow. In each Petri dish one stick was placed on malt agar previously seeded with inoculum. Two drops of fungal or spore suspension were pipetted on the upper surface of the stick. The Petri dishes were then incubated at 22° C. and 90% relative humidity. The treated sticks were evaluated after sufficient growth of the fungus on the untreated control sticks. The following score system was used to rate the effectiveness of the compounds:
(§4) 0=stick free of fungal growth
(§5) 1=traces of fungal growth on stick
(§6) 2=slight fungal growth (5 to 25% of the surface covered)
(§7) 3=moderate fungal growth (25 to 50% of the surface covered)
(§8) 4=vigorous fungal growth (greater than 50% of the surface covered).
(§9) For purposes of comparison of these compounds, these values were converted to threshold ranges. The threshold value in this system is defined as the minimum concentration of a particular compound which produces a score less than or equal to 1.

Aureobasidium pullulans = experiment: as above; details: minimum concentration producing a score less than or equal to 1; dosages 50-1000 ppm
Description: as §1, §2, §3, §4, §5, §6, §7, §8, §9

Trichoderma viride = experiment: as above; details: minimum concentration producing a score less than or equal to 1; dosages 250-5000 ppm
Description: as §1, §2, §3, §4, §5, §6, §7, §8, §9

Aspergillus niger = experiment: as above; details: minimum concentration producing a score less than or equal to 1; dosages 250-5000 ppm
Description: as §1, §2, §3, §4, §5, §6, §7, §8, §9

[1] = tested on: molds and blue-stain fungi; experiment: In vitro activity against molds and blue-stain fungi, poison plate assay (MIC); type: cell-based; details: malt extract agar, complete inhibition
Outline: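 Poison plate format: compound diluted in sterile water and mixed into malt extract agar, then plates inoculated with each fungus. Growth inhibition scored at each concentration to give the MIC.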

[2] = tested on: blue-stain fungi and molds; experiment: Activity against blue-stain fungi and molds in a stick test (threshold concentrations); details: beech sticks, 22° C., 90% relative humidity; for Threshold concentration (ppm), A. niger, score 0 / Threshold concentration (ppm), Aureobasidium, score 0 / Threshold concentration (ppm), Sclerophoma, score 0 / Threshold concentration (ppm), Trichoderma, score 0: minimum concentration to obtain score 0; for Threshold concentration (ppm), A. niger, score 1-2 / Threshold concentration (ppm), Aureobasidium, score 1-2 / Threshold concentration (ppm), Sclerophoma, score 1-2 / Threshold concentration (ppm), Trichoderma, score 1-2: minimum concentration to obtain score 1-2
Outline: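 Wood sticks soaked 3 h in compound serially diluted in 50% ethanol, dried, then inoculated with fungal or spore suspension. Incubated at 22° C and 90% relative humidity until untreated controls grew, then growth scored 0 (none) to 4 (>50% surface covered).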

With `C[S+]1CCON=C1c1ccc(Cl)cc1` (centres unmarked) [Compound 1] the “Score of bactericidal activity, D. hansenii” value (from here on “Score of bactericidal activity”) (Debaryomyces hansenii; 10 ppm in tryptose agar) was 2, the “Score of bactericidal activity” value (Debaryomyces hansenii; 100 ppm in tryptose agar) was 2 and the “Threshold value in stick test, SCLEROPHOMA PYTHIOPHILA” value (Sclerophoma pithyophila) was 100-250 ppm. The “Threshold value in stick test, AUREOBASIDIUM PULLULANS” value (Aureobasidium pullulans) was over 1000 ppm, the “Threshold value in stick test, TRICHODERMA VIRIDE” value (Trichoderma viride) was 2500-5000 ppm and the “Threshold value in stick test, A[…]” value (Aspergillus niger) was 1000-2500 ppm.
With `[O-][S+]1CCON=C1c1ccc(Cl)c(Cl)c1` (centres unmarked) [Compound 4] the “Score of bactericidal activity” value (Debaryomyces hansenii; 10 ppm in tryptose agar) was 2, the “Score of bactericidal activity” value (Debaryomyces hansenii; 100 ppm in tryptose agar) was 2 and the “MIC (ppm) against A. amstelodami” value [1] was 10 ppm. For the same molecule, the “MIC (ppm) against A. niger” value ([1]; A. niger) was 2.5 ppm, the “MIC (ppm) against A. pullulans” value ([1]; A. pullulans) was 10 ppm and the “MIC (ppm) against A. versicolor” value [1] was 5 ppm. The “MIC (ppm) against C. cladosporioides” value ([1]; C. cladosporioides) was 10 ppm, the “MIC (ppm) against C. pilifera” value [1] was 5 ppm and the “MIC (ppm) against F. solani” value [1] was 10 ppm. The “MIC (ppm) against G. candidum” value ([1]; G. candidum) was 25 ppm, the “MIC (ppm) against P. purpurogenum” value [1] was 10 ppm and the “MIC (ppm) against P. variotii” value [1] was 10 ppm. The “MIC (ppm) against P. violacea” value [1] was 25 ppm, the “MIC (ppm) against S. atra” value [1] was 2.5 ppm and the “MIC (ppm) against S. entoxylina” value [1] was 10 ppm. For the same molecule, the “MIC (ppm) against T. viride” value ([1]; T. viride) was 25 ppm, the “MIC (ppm) against U. atrum” value [1] was 25 ppm and the “Threshold value in stick test, SCLEROPHOMA PYTHIOPHILA” value (Sclerophoma pithyophila) was 50-100 ppm. The “Threshold value in stick test, AUREOBASIDIUM PULLULANS” value (Aureobasidium pullulans) was 500-1000 ppm, the “Threshold value in stick test, TRICHODERMA VIRIDE” value (Trichoderma viride) was 500-1000 ppm and the “Threshold value in stick test, A[…]” value (Aspergillus niger) was 250-500 ppm.
With `[O-][S+]1CCON=C1c1cccs1` (centres unmarked) [Compound 8] the “Threshold concentration (ppm), A. niger, score 0” value [2] was 1000 ppm, the “Threshold concentration (ppm), A. niger, score 1-2” value [2] was 250-500 ppm and the “Threshold concentration (ppm), Aureobasidium, score 0” value [2] was over 1000 ppm. The “Threshold concentration (ppm), Aureobasidium, score 1-2” value [2] was 250-500 ppm, the “Threshold concentration (ppm), Sclerophoma, score 0” value [2] was 100 ppm and the “Threshold concentration (ppm), Sclerophoma, score 1-2” value [2] was 50-100 ppm. For the same molecule, the “Threshold concentration (ppm), Trichoderma, score 0” value [2] was 1000 ppm, the “Threshold concentration (ppm), Trichoderma, score 1-2” value [2] was 500-1000 ppm and the “Score of bactericidal activity” value (Debaryomyces hansenii; 10 ppm in tryptose agar) was 2. The “Score of bactericidal activity” value (Debaryomyces hansenii; 100 ppm in tryptose agar) was 2, the “MIC (ppm) against A. amstelodami” value [1] was 10 ppm and the “MIC (ppm) against A. niger” value ([1]; A. niger) was 25 ppm. For the same molecule, the “MIC (ppm) against A. pullulans” value ([1]; A. pullulans) was over 25 ppm, the “MIC (ppm) against A. versicolor” value [1] was 10 ppm and the “MIC (ppm) against C. cladosporioides” value ([1]; C. cladosporioides) was over 25 ppm. For the same molecule, the “MIC (ppm) against C. pilifera” value [1] was 5 ppm, the “MIC (ppm) against F. solani” value [1] was 25 ppm and the “MIC (ppm) against G. candidum” value ([1]; G. candidum) was over 25 ppm. The “MIC (ppm) against P. purpurogenum” value [1] was over 25 ppm, the “MIC (ppm) against P. variotii” value [1] was over 25 ppm and the “MIC (ppm) against P. violacea” value [1] was 25 ppm. For the same molecule, the “MIC (ppm) against S. atra” value [1] was 10 ppm, the “MIC (ppm) against S. entoxylina” value [1] was 10 ppm and the “MIC (ppm) against T. viride” value ([1]; T. viride) was over 25 ppm. The “MIC (ppm) against U. atrum” value [1] was 25 ppm, the “Threshold value in stick test, SCLEROPHOMA PYTHIOPHILA” value (Sclerophoma pithyophila) was 50-100 ppm and the “Threshold value in stick test, AUREOBASIDIUM PULLULANS” value (Aureobasidium pullulans) was 250-500 ppm. The “Threshold value in stick test, TRICHODERMA VIRIDE” value (Trichoderma viride) was 500-1000 ppm and the “Threshold value in stick test, A[…]” value (Aspergillus niger) was 250-500 ppm.
In the case of `CC(=O)c1ccc(C2=NOCC[S+]2[O-])cc1` (centres unmarked) [Compound 14], the “Score of bactericidal activity” value (Debaryomyces hansenii; 10 ppm in tryptose agar) is reported as 0 and the “Score of bactericidal activity” value (Debaryomyces hansenii; 100 ppm in tryptose agar) is reported as 2.
With `C[S+]1CCON=C1c1cc(Cl)cc(Cl)c1` (centres unmarked) [Compound 19] the “MIC (ppm) against A. amstelodami” value [1] was 25 ppm, the “MIC (ppm) against A. versicolor” value [1] was 25 ppm and the MIC ([1]; Aspergillus niger, A. niger, read-out: MIC (ppm) against A. niger) was 2.5 µg/mL. For the same molecule, the MIC ([1]; Aureobasidium pullulans, A. pullulans, read-out: MIC (ppm) against A. pullulans) was 25 µg/mL, the “MIC (ppm) against C. pilifera” value [1] was 10 ppm and the MIC ([1]; Cladosporium cladosporioides, C. cladosporioides, read-out: MIC (ppm) against C. cladosporioides) was 25 µg/mL. For the same molecule, the “MIC (ppm) against F. solani” value [1] was over 25 ppm, the MIC ([1]; Geotrichum candidum, G. candidum, read-out: MIC (ppm) against G. candidum) was over 25 µg/mL and the “MIC (ppm) against P. purpurogenum” value [1] was 25 ppm. The “MIC (ppm) against P. variotii” value [1] was 25 ppm, the “MIC (ppm) against P. violacea” value [1] was over 25 ppm and the “MIC (ppm) against S. atra” value [1] was 25 ppm. The “MIC (ppm) against S. entoxylina” value [1] was 25 ppm, the MIC ([1]; Trichoderma viride, T. viride, read-out: MIC (ppm) against T. viride) was 25 µg/mL and the “MIC (ppm) against U. atrum” value [1] was over 25 ppm. For the same molecule, the “Threshold value in stick test, SCLEROPHOMA PYTHIOPHILA” value (Sclerophoma pithyophila) was 250-500 ppm, the “Threshold value in stick test, AUREOBASIDIUM PULLULANS” value (Aureobasidium pullulans) was 250-500 ppm and the “Threshold value in stick test, TRICHODERMA VIRIDE” value (Trichoderma viride) was under 250 ppm. The “Threshold value in stick test, A[…]” value (Aspergillus niger) was 250-500 ppm.
With `C[S+]1CCON=C1c1ccc(C(F)(F)F)cc1` (centres unmarked) [Compound 25] the “Threshold value in stick test, SCLEROPHOMA PYTHIOPHILA” value (Sclerophoma pithyophila) was 50-100 ppm, the “Threshold value in stick test, AUREOBASIDIUM PULLULANS” value (Aureobasidium pullulans) was 250-500 ppm and the “Threshold value in stick test, TRICHODERMA VIRIDE” value (Trichoderma viride) was under 250 ppm. For the same molecule, the “Threshold value in stick test, A[…]” value (Aspergillus niger) was under 250 ppm.
`O=S1(=O)CCON=C1c1cccs1` [Compound 34] was tested, and the “Threshold concentration (ppm), A. niger, score 0” value [2] was 500 ppm, the “Threshold concentration (ppm), A. niger, score 1-2” value [2] was under 250 ppm and the “Threshold concentration (ppm), Aureobasidium, score 0” value [2] was over 1000 ppm. The “Threshold concentration (ppm), Aureobasidium, score 1-2” value [2] was 250-500 ppm, the “Threshold concentration (ppm), Sclerophoma, score 0” value [2] was 100 ppm and the “Threshold concentration (ppm), Sclerophoma, score 1-2” value [2] was under 50 ppm. The “Threshold concentration (ppm), Trichoderma, score 0” value [2] was 2500 ppm, the “Threshold concentration (ppm), Trichoderma, score 1-2” value [2] was 500-1000 ppm and the “MIC (ppm) against A. amstelodami” value [1] was 5 ppm. For the same molecule, the “MIC (ppm) against A. niger” value ([1]; A. niger) was 5 ppm, the “MIC (ppm) against A. pullulans” value ([1]; A. pullulans) was 25 ppm and the “MIC (ppm) against A. versicolor” value [1] was 5 ppm. For the same molecule, the “MIC (ppm) against C. cladosporioides” value ([1]; C. cladosporioides) was 25 ppm, the “MIC (ppm) against C. pilifera” value [1] was 2.5 ppm and the “MIC (ppm) against F. solani” value [1] was 25 ppm. For the same molecule, the “MIC (ppm) against G. candidum” value ([1]; G. candidum) was 25 ppm, the “MIC (ppm) against P. purpurogenum” value [1] was 10 ppm and the “MIC (ppm) against P. variotii” value [1] was 25 ppm. For the same molecule, the “MIC (ppm) against P. violacea” value [1] was 25 ppm, the “MIC (ppm) against S. atra” value [1] was 5 ppm and the “MIC (ppm) against S. entoxylina” value [1] was 5 ppm. The “MIC (ppm) against T. viride” value ([1]; T. viride) was over 25 ppm and the “MIC (ppm) against U. atrum” value [1] was 25 ppm.
